According to article PMC5646234 (ChemPhotoChem, 2017):

Molecular target: T1, Saposin B (SapB) (Homo sapiens, UniProt P07602)
T1 sequence (P07602 195-273): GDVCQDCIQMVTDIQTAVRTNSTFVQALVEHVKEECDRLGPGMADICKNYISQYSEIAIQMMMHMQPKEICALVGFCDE
Assay: tyrosine fluorescence quenching titration
Assay type: binding

CC1=C(/C=C/C(C)=C/C=C/C(C)=C/c2cc(/C=C/C=C(C)/C=C/C3=C(C)CCCC3(C)C)cc[n+]2CCO)C(C)(C)CCC1 [A2E, 2-[(1E,3E,5E,7E)-2,5-dimethyl-8-(2,6,6-trimethyl-cyclohex-1-en-1-yl)octa-1,3,5,7-tetraen-1-yl]-1-(2-hydroxyethyl)-4-[(1E,3E,5E)-4-methyl-6-(2,6,6-trimethylcyclohex-1-en-1-yl)hexa-1,3,5-trien-1-yl]pyridinium]
Kd: 25 µM
